Where “and” joins values, the source holds several entries; their conditions need not be identical. Identical values can stand only once.
Test system: patients with treatment-resistant major depressive disorder (TRD)
Test: Phase 1/2 clinical trial of inhaled 5-MeO-DMT in TRD patients (12 mg, 18 mg, individualized dosing regimen IDR 6/12/18 mg)
Procedure: Patients were assigned to different groups. In the context of the present invention, the group who received a single, 12 mg dose and the group who underwent an intra-day individualized dosing regimen (IDR) that allowed for multiple, escalating doses (6 mg, 12 mg and 18 mg) within a single day, driven by the intensity of the patient-reported psychedelic experience are of interest.
The data gathered include the assessment of the treated patients against several scales including the Montgomery-Åsberg Depression Rating Scale (MADRS) and the Brief Psychiatric Rating Scale (BPRS).
This trial was designed in two parts. Part A was an open-label, single-arm, single-dose Phase 1 trial with two dose levels (12 mg (n=4) and 18 mg (n=4)). […] The primary endpoint of Part B was to assess the effects on the severity of depression, as assessed by the proportion of patients in remission on day seven after dosing, defined as a MADRS total score of less than or equal to 10.

COc1ccc2[nH]cc(CCN(C)C)c2c1 [5-MeO-DMT]
MADRS Concentration Difficulties improvement (points) (12 mg n=4, 2 h): 9 | MADRS Concentration Difficulties percentage improvement (12 mg n=4, 2 h): 56% and 56.25% | MADRS Concentration Difficulties summed score (12 mg n=4, 2 h): 7 | MADRS Inability to Feel improvement (points) (12 mg n=4, 2 h): 7 | MADRS Inability to Feel percentage improvement (12 mg n=4, 2 h): 44% and 43.75% | MADRS Inability to Feel summed score (12 mg n=4, 2 h): 9 | MADRS Inner Tension improvement (points) (12 mg n=4, 2 h): 11 | MADRS Inner Tension percentage improvement (12 mg n=4, 2 h): 85% and 84.62% | MADRS Inner Tension summed score (12 mg n=4, 2 h): 2 | MADRS Lassitude improvement (points) (12 mg n=4, 2 h): 6 | MADRS Lassitude percentage improvement (12 mg n=4, 2 h): 38% and 37.50% | MADRS Lassitude summed score (12 mg n=4, 2 h): 10 | MADRS Pessimistic Thoughts improvement (points) (12 mg n=4, 2 h): 8 | MADRS Pessimistic Thoughts percentage improvement (12 mg n=4, 2 h): 50% | MADRS Pessimistic Thoughts summed score (12 mg n=4, 2 h): 8 | MADRS Suicidal Thoughts improvement (points) (12 mg n=4, 2 h): 5 | MADRS Suicidal Thoughts percentage improvement (12 mg n=4, 2 h): 63% and 62.50% | MADRS Suicidal Thoughts summed score (12 mg n=4, 2 h): 3 | BPRS Anxiety improvement (points) (12 mg n=4, 3 h): 14 | BPRS Anxiety percentage improvement (12 mg n=4, 3 h): 56% | BPRS Anxiety summed score (12 mg n=4, 3 h): 11 | BPRS Blunted Affect improvement (points) (12 mg n=4, 3 h): 3 | BPRS Blunted Affect percentage improvement (12 mg n=4, 3 h): 27% and 27.27% | BPRS Blunted Affect summed score (12 mg n=4, 3 h): 8 | BPRS Emotional Withdrawal improvement (points) (12 mg n=4, 3 h): 2 | BPRS Emotional Withdrawal percentage improvement (12 mg n=4, 3 h): 15% and 15.38% | BPRS Emotional Withdrawal summed score (12 mg n=4, 3 h): 11 | BPRS Guilt Feelings improvement (points) (12 mg n=4, 3 h): 9 | BPRS Guilt Feelings percentage improvement (12 mg n=4, 3 h): 50% | BPRS Guilt Feelings summed score (12 mg n=4, 3 h): 9 | BPRS Tension improvement (points) (12 mg n=4, 3 h): 5 | BPRS Tension percentage improvement (12 mg n=4, 3 h): 36% and 35.71% | BPRS Tension summed score (12 mg n=4, 3 h): 9 | BPRS Anxiety improvement (points) (12 mg n=4, Day 1): 19 | BPRS Anxiety percentage improvement (12 mg n=4, Day 1): 76% | BPRS Anxiety summed score (12 mg n=4, Day 1): 6 | BPRS Blunted Affect improvement (points) (12 mg n=4, Day 1): 5 | BPRS Blunted Affect percentage improvement (12 mg n=4, Day 1): 45% and 45.45% | BPRS Blunted Affect summed score (12 mg n=4, Day 1): 6 | BPRS Emotional Withdrawal improvement (points) (12 mg n=4, Day 1): 5 | BPRS Emotional Withdrawal percentage improvement (12 mg n=4, Day 1): 38% and 38.46% | BPRS Emotional Withdrawal summed score (12 mg n=4, Day 1): 8 | BPRS Guilt Feelings improvement (points) (12 mg n=4, Day 1): 13 | BPRS Guilt Feelings percentage improvement (12 mg n=4, Day 1): 72% and 72.22% | BPRS Guilt Feelings summed score (12 mg n=4, Day 1): 5 | BPRS Tension improvement (points) (12 mg n=4, Day 1): 8 | BPRS Tension percentage improvement (12 mg n=4, Day 1): 57% and 57.14% | BPRS Tension summed score (12 mg n=4, Day 1): 6 | MADRS Concentration Difficulties improvement (points) (12 mg n=4, Day 1): 14 | MADRS Concentration Difficulties percentage improvement (12 mg n=4, Day 1): 88% and 87.50% | MADRS Concentration Difficulties summed score (12 mg n=4, Day 1): 2 | MADRS Inability to Feel improvement (points) (12 mg n=4, Day 1): 15 | MADRS Inability to Feel percentage improvement (12 mg n=4, Day 1): 94% and 93.75% | MADRS Inability to Feel summed score (12 mg n=4, Day 1): 1 | MADRS Inner Tension improvement (points) (12 mg n=4, Day 1): 10 | MADRS Inner Tension percentage improvement (12 mg n=4, Day 1): 77% and 76.92% | MADRS Inner Tension summed score (12 mg n=4, Day 1): 3 | MADRS Lassitude improvement (points) (12 mg n=4, Day 1): 16 | MADRS Lassitude percentage improvement (12 mg n=4, Day 1): 100% | MADRS Lassitude summed score (12 mg n=4, Day 1): 0 | MADRS Pessimistic Thoughts improvement (points) (12 mg n=4, Day 1): 9 | MADRS Pessimistic Thoughts percentage improvement (12 mg n=4, Day 1): 56% and 56.25% | MADRS Pessimistic Thoughts summed score (12 mg n=4, Day 1): 7 | MADRS Reduced Sleep improvement (points) (12 mg n=4, Day 1): 2 | MADRS Reduced Sleep percentage improvement (12 mg n=4, Day 1): 17% and 16.67% | MADRS Reduced Sleep summed score (12 mg n=4, Day 1): 10 | MADRS Suicidal Thoughts improvement (points) (12 mg n=4, Day 1): 3 | MADRS Suicidal Thoughts percentage improvement (12 mg n=4, Day 1): 38% and 37.50% | MADRS Suicidal Thoughts summed score (12 mg n=4, Day 1): 5 | BPRS Anxiety improvement (points) (12 mg n=4, Day 7): 19 | BPRS Anxiety percentage improvement (12 mg n=4, Day 7): 76% | BPRS Anxiety summed score (12 mg n=4, Day 7): 6 | BPRS Blunted Affect improvement (points) (12 mg n=4, Day 7): 6 | BPRS Blunted Affect percentage improvement (12 mg n=4, Day 7): 55% and 54.55% | BPRS Blunted Affect summed score (12 mg n=4, Day 7): 5 | BPRS Emotional Withdrawal improvement (points) (12 mg n=4, Day 7): 7 | BPRS Emotional Withdrawal percentage improvement (12 mg n=4, Day 7): 54% and 53.85% | BPRS Emotional Withdrawal summed score (12 mg n=4, Day 7): 6 | BPRS Guilt Feelings improvement (points) (12 mg n=4, Day 7): 13 | BPRS Guilt Feelings percentage improvement (12 mg n=4, Day 7): 72% and 72.22% | BPRS Guilt Feelings summed score (12 mg n=4, Day 7): 5 | BPRS Tension improvement (points) (12 mg n=4, Day 7): 8 | BPRS Tension percentage improvement (12 mg n=4, Day 7): 57% and 57.14% | BPRS Tension summed score (12 mg n=4, Day 7): 6 | MADRS Concentration Difficulties improvement (points) (12 mg n=4, Day 7): 13 | MADRS Concentration Difficulties percentage improvement (12 mg n=4, Day 7): 81% and 81.25% | MADRS Concentration Difficulties summed score (12 mg n=4, Day 7): 3 | MADRS Inability to Feel improvement (points) (12 mg n=4, Day 7): 15 | MADRS Inability to Feel percentage improvement (12 mg n=4, Day 7): 94% and 93.75% | MADRS Inability to Feel summed score (12 mg n=4, Day 7): 1 | MADRS Inner Tension improvement (points) (12 mg n=4, Day 7): 8 | MADRS Inner Tension percentage improvement (12 mg n=4, Day 7): 62% and 61.54% | MADRS Inner Tension summed score (12 mg n=4, Day 7): 5 | MADRS Lassitude improvement (points) (12 mg n=4, Day 7): 13 | MADRS Lassitude percentage improvement (12 mg n=4, Day 7): 81% and 81.25% | MADRS Lassitude summed score (12 mg n=4, Day 7): 3 | MADRS Pessimistic Thoughts improvement (points) (12 mg n=4, Day 7): 8 | MADRS Pessimistic Thoughts percentage improvement (12 mg n=4, Day 7): 50% | MADRS Pessimistic Thoughts summed score (12 mg n=4, Day 7): 8 | MADRS Reduced Sleep improvement (points) (12 mg n=4, Day 7): 6 | MADRS Reduced Sleep percentage improvement (12 mg n=4, Day 7): 50% | MADRS Reduced Sleep summed score (12 mg n=4, Day 7): 6 | MADRS Suicidal Thoughts improvement (points) (12 mg n=4, Day 7): 1 | MADRS Suicidal Thoughts percentage improvement (12 mg n=4, Day 7): 13% and 12.50% | MADRS Suicidal Thoughts summed score (12 mg n=4, Day 7): 7 | patients with MADRS remission (12 mg n=4, day seven): 50% | mean MADRS change from baseline (12 mg, day seven): −21.0 | mean MADRS change from baseline, percent (12 mg, day seven): −65% | further patients with MADRS clinical response (18 mg n=4, day seven): 25% | patients with MADRS remission (18 mg n=4, day seven): 25% | mean MADRS change from baseline, percent (18 mg, day seven): −41% | patients maintaining remission (fraction) (Day 7): ⅞

Source: patent US20240108602A1, “TREATMENT OF MENTAL DISORDERS” (GH Research Ireland Limited, priority 2022, published 2024)
